Results published in patent US20130089591A1, “Compositions” (Givaudan SA, priority 2010, published 2013).

Assays:
[1] = Aggregation of polyamide capsules (Example 2 method); assay type: physicochemical; design: key to Encapsulation, No precursor (scale of aggregation) / Encapsulation, With precursor (scale of aggregation): ∘: no aggregation of the capsules; +: aggregation of few capsules together only visible under microscopy; ++: aggregates of mm size; +++: important aggregation; ++++: aggregation is such that a cake is obtained; settings: for Encapsulation, No precursor (scale of aggregation): free aldehyde as phase B at 5% in phase A of Table 1; for Encapsulation, With precursor (scale of aggregation): precursor of the aldehyde (Method 1.1) as phase B at 5% in phase A of Table 1
Description: An oil phase was prepared by dissolving isophtahaloyl dichloride (Fluka) in oil (oil composition specified in the examples below) at a level of 10%
An aqueous solution (Solution S1) was prepared by dissolving a polyvinyl alcohol Mowiol 4-88 (Kuru ray) in water at a level of 1%.
An aqueous solution (Solution S2) was prepared when triethylentetraamine (Hunstman) was diluted in water at a level of 3%.
100 g of the oil phase was mixed with 450 g of solution S1 to form an oil-in-water emulsion in a 1 L reactor equipped with a MIG stirrer operating at 1000 rpm. After 5 minutes of mixing, 450 g of solution S2 was slowly added. The resultant slurry of polyamide capsules was kept under stirring for 2 H.
Two capsule populations were formed. A first encapsulating IPM (isopropyl myristate) and a second containing IPM+5% of ethyl vaniline. The capsules were made according to the method of Example 2.
The methodology of Example 2 was applied to encapsulate different perfume oils described as phase A (non aldehyde raw materials) and phase B (aldehyde raw materials).
The phase B was added at 5% to the phase A prior to encapsulation. Different compositions of phase B have been used corresponding each time to a single aldehyde perfume molecule or to its precursor formed according to the methodology of Method 1.1, above.
According to the condition of the slurry a scale of aggregation has been defined as follows: […]
(§1) ∘ no aggregation of the capsules + aggregation of few capsules together only visible under microscopy ++ aggregates of mm size +++ important aggregation ++++ aggregation is such that a cake is obtained

[2] = Aggregation of polyurea capsules, Method 5.7; assay type: physicochemical; settings: polyurea Method 5.7; phase B at 5% in phase A of Table 1
Description: An oil phase was prepared when Desmodur N3300 (Bayer) was added in perfume oil at a level of 6.7%.
An aqueous phase (Solution S1) was prepared when_Mowiol 4-88 (Kururay) was added in water, at a level of 1.1%.
An aqueous phase (Solution S2) was prepared when Hydrosil 1151 (Evonik) was added in water, at a level of 75%.
134 g of oil phase was mixed with 440 g of solution 51, to form an oil-in-water emulsion, in a 1 L vessel equipped with a propeller operating at 1000 rpm.
After 10 min of stirring, 45 g of solution S2 was added.
[…] the slurry was kept at 40° C. for 2 h more before cooling.
The Method 5.7 of Example 5 was applied to encapsulate different perfume oils described as phase A (non aldehyde raw materials) and phase B (aldehyde raw materials).
The composition of Phase A is described in Table 1. Phase B is an aldehyde perfume molecule used as such or as its precursor form added at a level of 5% in Phase A.

[3] = Aggregation of polyurea capsules, Method 5.5; assay type: physicochemical; design: key: ∘: no aggregation of the capsules; +: aggregation of few capsules together only visible under microscopy; ++: aggregates of mm size; +++: important aggregation; ++++: aggregation is such that a cake is obtained; settings: polyurea Method 5.5, phase A of Table 1; for Encapsulation, No precursor (scale of aggregation): free aldehyde as phase B; for Encapsulation, With precursor (scale of aggregation): precursor (Method 1.1) as phase B
Description: An oil phase was prepared when Desmodur W and Desmodur N3300 (Bayer) were added in perfume oil at a level of 2.2% and 13% respectively.
An aqueous phase (Solution S1) was prepared when Gantrez AN119 (ISP) was added to water, at a level of 1.6%. The solution was heated at 70° C. for 10 min to disperse the polymer.
An aqueous phase (Solution S2) was prepared when Ethylene diamine (Merck) was added to water, at a level of 7.5%.
30 g of the oil phase was mixed with 80 g of solution S1, to form an oil-in-water emulsion, in a 250 mL vessel equipped with a propeller operating at 1000 rpm.
After 10 min of stirring, 20 g of solution S2 was added.
The slurry was stirred for 30 min at room temperature, then heated to 60° C. and stirred for 3 H at 60° C. before cooling.
The Method 5.5 of Example 5 was applied to encapsulate different perfume oils described as phase A (non aldehyde raw materials) and phase B (aldehyde raw materials).
The composition of Phase A was described in Table 1 above. Phase B is an aldehyde perfume molecule used as such or as its precursor form prepared according to Method 1.1.
According to the aspect of the slurry a scale of aggregation was defined as follow: […]
as §1
Phase B was added at a level of 20% of aldehyde in phase A.

[4] = Aggregation of polyurea capsules, Method 5.6; assay type: physicochemical; design: key: ∘: no aggregation of the capsules; +: aggregation of few capsules together only visible under microscopy; ++: aggregates of mm size; +++: important aggregation; ++++: aggregation is such that a cake is obtained; settings: polyurea Method 5.6, phase A of Table 1; for Encapsulation, No precursor (scale of aggregation): free aldehyde as phase B; for Encapsulation, With precursor (scale of aggregation): precursor (Method 1.1) as phase B
Description: An oil phase was prepared when Desmodur VL R20 (Bayer) was added in perfume oil at a level of 2.5%.
An aqueous phase (Solution S1) was prepared when Mowiol 4-88 (Kururay) was added in water, at a level of 0.1%.
An aqueous phase (Solution S2) was prepared when diethylentriamine (Merck) was added in water, at a level of 2%.
100 g of oil phase was mixed with 250 g of solution S1, to form an oil-in-water emulsion, in a 500 mL vessel equipped with a propeller operating at 1000 rpm.
After 10 min of stirring, 50 g of solution S2 was added.
The slurry was stirred for 4 h at room temperature.
The Method 5.6 of Example 5 was applied to encapsulate different perfume oils described as phase A (non aldehyde raw materials) and phase B (aldehyde raw materials).
The composition of Phase A is described in Table 1. Phase B is an aldehyde perfume molecule used as such or as its precursor form prepared according to Method 1.1.
According to the aspect of the slurry a scale of aggregation has been defined as follow: […]
as §1

[5] = Aggregation of polyurea capsules, Method 5.1; assay type: physicochemical
Description: An oil phase was prepared by adding Desmodur W (Isocyanate from Bayer) to a perfume oil at a level of 16.6%.
An aqueous phase (solution S1) was prepared by adding Luviskol k90 (BASF) to water, at a level of 4.5%. The pH of the solution was adjusted to 11.5 by addition of NaOH at 10%.
An aqueous phase (Solution S2) was prepared when Lupasol PR8515 (BASF) was added to water, at a level of 10%.
300 g of the oil phase was mixed with 500 g of solution S1, to form an oil-in-water emulsion, in a 1 L reactor equipped with a MIG stirrer operating at 1000 rpm.
After 30 minutes of mixing, 200 g of solution S2 was added over a period of 1 minute.
After 30 minutes, the slurry was heated up to 70° C. (1 H), then kept for 2 H at 70° C., then heated to 80° C. and kept for 1 H at 80° C., then heated to 85° C. and kept for 1 H at 85° C., then cooled to 70° C. and kept for 1 H at 70° C. before final cooling at 25° C.
The Method 5.1 of Example 5 was applied to encapsulate different perfume oils described as phase A (non aldehyde raw materials) and phase B (aldehyde raw materials).
In the following trials, phase A was IPM and phase B was aldehyde perfume molecules. Phase B was added at a level of 5% in phase A.
Phase B contains aldehyde C11 iso or the corresponding precursor prepared according to Method 1.1.
Phase B was added at a level of 5% in phase A.

[6] = Water solubility of the aldehyde
[7] = Aggregation of polyurea capsules, Method 5.4; assay type: physicochemical; settings: polyurea Method 5.4; phase B at 4% of aldehyde in phase A
Description: An oil phase was prepared when Desmodur W (Bayer) was added in perfume oil at a level of 16.6%.
An aqueous phase (Solution S1) was prepared when Mowiol 40-88 (Kururay) was added in water, at a level of 4.5%.
An aqueous phase (Solution S2) was prepared when Lupasol PR8515 (BASF) was added in water, at a level of 10%.
240 g of oil phase was mixed with 640 g of solution S1, to form an oil-in-water emulsion, in a 1 L reactor equipped with a mig operating at 1000 rpm.
After 30 min, the slurry is heated up to 50° C. and the solution S2 is slowly added (1 H).
The slurry is then heated up to 70° C. and kept for 2 H at 70° C., then heated to 80° C. and kept for 1 H at 80° C., then heated to 85° C. and kept for 1 H at 85° C., then cooled to 70° C. and kept for 1 H at 70° C. before final cooling at 25° C.
The Method 5.4 of Example 5 was applied to encapsulate different perfume oils described as phase A (non aldehyde raw materials) and phase B (aldehyde raw materials).
Phase B is tricyclal or the precursor of tricyclal obtained according to Method 1.1.
Phase B was added at a level of 4% of aldehyde in phase A.

| Encapsulation, No precursor (scale of aggregation) [1] | Encapsulation, With precursor (scale of aggregation) [1] | Slurry aspect [2] | Encapsulation, No precursor (scale of aggregation) [3] | Encapsulation, With precursor (scale of aggregation) [3] | Encapsulation, No precursor (scale of aggregation) [4] | Encapsulation, With precursor (scale of aggregation) [4] | Quality of the capsules examined microscopically ([5]; IPM + aldehyde) | Encapsulation (aggregation) ([5]; free aldehyde at 5% in IPM) | Water solubility ([6]; Table 2) [ppm] | Water solubility ([6]; Table 3) [ppm] | Water solubility ([6]; Table of Example 11) [ppm] | Water solubility ([6]; Table of Example 13) [ppm] | Aggregation of the capsules obtained [7] | SMILES |
| --- | --- | --- | --- | --- | --- | --- | --- | --- | --- | --- | --- | --- | --- | --- |
| ++ | ∘ | cake | ∘ | ∘ | ∘ | ∘ | – | – | – | – | – | – | – | CC(C=O)Cc1ccc(C(C)(C)C)cc1 (centres unmarked) [Lilial] |
| ++++ | ∘ | – | ++++ | ∘ | +++ | ∘ | aggregated | Aggregation | 700 | 700 | 700 | 700 | slightly aggregated | CC1=CC(C)C(C=O)CC1 (centres unmarked) [Tricyclal] |
